In patent US20090325959A1 (priority 2008, published 2009):
Read-outs that look alike come from different tables or passages of the source.

How the values were obtained:
[1] = target: T1, ERK2 (Homo sapiens, UniProt P28482); test: Kinase panel screen (KinaseProfiler), ERK2; format: biochemical
T1 construct: purchased Upstate, Millipore Bioscience Division (KinaseProfiler service)
Method: (§1) Compounds of Formulae I and II were examined for activity against a selected panel of kinases using the KinaseProfiler™ enzyme profiling services (Upstate, Millipore Bioscience Division). Percent kinase activity at 10 μM and 1 μM test compound and 10 μM ATP was determined against 40 wild-type recombinant human kinases according to Upstate's standard protocol: ASK1, BTK, CSK, c-RAF, GCK, GSK3β, IKKα, IKKβ, IRAK1, IRAK4, JNK1α1, JNK2α2, JNK3, ERK1, ERK2, MAPKAP-K2, MAPKAP-K3, MEK1, MKK4, MKK6, MKK7β, Mnk2, MSK1, PAK3, PDK1, PRAK, ROCK1, Rsk2, SAPK2a, SAPK2b, SAPK3, SAPK4, SRPK1, SRPK2, Syk, TAK1, TBK1, PI3-Kβ, PI3-Kγ, PI3-Kδ.

[2] = target: T2, IRAK1 (Homo sapiens, UniProt P51617); test: Kinase panel screen (KinaseProfiler), IRAK1; format: biochemical; settings: 10 μM ATP
T2 construct: purchased Upstate, Millipore Bioscience Division (KinaseProfiler service)
T2 sequence (P51617 whole entry): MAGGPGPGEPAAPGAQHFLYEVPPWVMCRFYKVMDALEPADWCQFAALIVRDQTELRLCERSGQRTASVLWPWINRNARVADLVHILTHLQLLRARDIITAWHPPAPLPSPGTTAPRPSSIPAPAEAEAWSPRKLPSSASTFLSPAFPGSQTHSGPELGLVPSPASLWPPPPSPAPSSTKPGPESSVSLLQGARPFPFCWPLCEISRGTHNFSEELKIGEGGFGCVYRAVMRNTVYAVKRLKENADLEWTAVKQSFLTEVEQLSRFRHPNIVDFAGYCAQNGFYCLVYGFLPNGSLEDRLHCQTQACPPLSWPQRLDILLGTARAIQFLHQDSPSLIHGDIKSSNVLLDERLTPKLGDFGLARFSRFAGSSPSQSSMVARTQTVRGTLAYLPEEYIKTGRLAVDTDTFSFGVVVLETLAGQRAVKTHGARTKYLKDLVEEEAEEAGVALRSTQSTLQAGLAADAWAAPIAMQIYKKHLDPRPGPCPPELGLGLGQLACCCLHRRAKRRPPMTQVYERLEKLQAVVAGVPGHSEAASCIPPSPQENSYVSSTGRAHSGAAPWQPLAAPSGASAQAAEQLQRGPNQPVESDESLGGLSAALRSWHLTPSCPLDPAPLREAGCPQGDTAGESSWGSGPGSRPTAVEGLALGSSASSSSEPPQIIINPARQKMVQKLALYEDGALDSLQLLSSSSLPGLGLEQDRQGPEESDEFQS
Method: as §1

[3] = target: T3, ERK1 (Homo sapiens, UniProt P27361); test: Kinase panel screen (KinaseProfiler), ERK1; format: biochemical
T3 construct: purchased Upstate, Millipore Bioscience Division (KinaseProfiler service)
T3 sequence (P27361 whole entry): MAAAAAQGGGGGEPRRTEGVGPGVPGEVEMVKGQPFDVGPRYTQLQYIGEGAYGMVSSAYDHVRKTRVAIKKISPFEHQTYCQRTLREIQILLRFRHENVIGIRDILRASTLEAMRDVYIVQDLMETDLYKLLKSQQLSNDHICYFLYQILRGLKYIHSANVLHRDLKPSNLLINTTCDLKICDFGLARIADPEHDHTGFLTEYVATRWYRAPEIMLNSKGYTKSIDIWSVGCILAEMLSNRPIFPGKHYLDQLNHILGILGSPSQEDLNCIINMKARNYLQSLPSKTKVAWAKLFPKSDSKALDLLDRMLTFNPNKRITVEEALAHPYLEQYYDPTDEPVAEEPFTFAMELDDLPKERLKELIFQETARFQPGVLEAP
Method: as §1

[4] = target: T4, GCK (Homo sapiens, UniProt Q12851); test: Kinase panel screen (KinaseProfiler), GCK; format: biochemical
T4 construct: purchased Upstate, Millipore Bioscience Division (KinaseProfiler service)
T4 sequence (Q12851 1-820): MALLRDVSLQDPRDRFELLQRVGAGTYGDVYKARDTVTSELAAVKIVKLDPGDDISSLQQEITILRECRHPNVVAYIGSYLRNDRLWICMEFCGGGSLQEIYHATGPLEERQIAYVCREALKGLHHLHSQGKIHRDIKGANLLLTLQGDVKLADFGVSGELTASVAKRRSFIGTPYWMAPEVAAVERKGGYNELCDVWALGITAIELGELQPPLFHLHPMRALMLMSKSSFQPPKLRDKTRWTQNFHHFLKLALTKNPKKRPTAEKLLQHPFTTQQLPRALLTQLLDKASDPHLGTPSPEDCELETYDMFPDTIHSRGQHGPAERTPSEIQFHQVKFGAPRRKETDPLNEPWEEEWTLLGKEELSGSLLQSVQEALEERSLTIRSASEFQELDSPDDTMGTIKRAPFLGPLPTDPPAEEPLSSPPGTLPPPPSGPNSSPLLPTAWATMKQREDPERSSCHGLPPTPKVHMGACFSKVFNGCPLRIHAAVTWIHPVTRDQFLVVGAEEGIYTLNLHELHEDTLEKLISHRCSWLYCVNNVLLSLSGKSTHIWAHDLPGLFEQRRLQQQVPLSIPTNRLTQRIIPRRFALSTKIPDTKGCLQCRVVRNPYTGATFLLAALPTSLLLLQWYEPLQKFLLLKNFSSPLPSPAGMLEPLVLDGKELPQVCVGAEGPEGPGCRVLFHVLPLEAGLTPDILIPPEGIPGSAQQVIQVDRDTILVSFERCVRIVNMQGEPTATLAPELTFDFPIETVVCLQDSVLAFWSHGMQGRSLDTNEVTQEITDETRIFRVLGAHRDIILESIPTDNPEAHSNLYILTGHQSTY
Method: as §1

[5] = system: human monocytes; test: Human monocyte cytokine secretion assay (LPS-stimulated); format: cell-based; settings: for IC50: Monocyte, LPS-stimulated human monocytes
Method: Peripheral blood from healthy human volunteers was collected and the monocytes isolated via Ficoll-paque density centrifugation. […] The cells were allowed to pre-incubate with test compound at the indicated concentration for 30 minutes (37° C., 5% CO2, humidified air); after which the supernatant was removed and media containing compound and 1 ng/mL LPS was added. Cells were allowed to incubate with compounds and LPS for 4 hours at 37° C. after which the supernatant was removed and stored at −80° C. Cytokine concentrations in the supernatant were determined using commercially available Bio-Rad Bio-plex™ kits according the manufacturer's instructions.

[6] = Compound plasma concentrations in unsensitized mice at 15 min post administration; format: in vivo; settings: mouse, 15 μmol/kg; mean compound plasma concentration in mice at 15 minutes post oral administration; read-out: Mouse Oral PK
Method: Additionally, compound concentrations were determined in the plasma and lungs of male, ovalbumin-sensitized, Balb/c mice from a murine model of asthma. Test compounds were formulated in water or 1% polysorbate 80 and dosed at 15 μmol/kg for intraperitoneal (IP) or oral (PO) administration or formulated for intratracheal (IT) administration and dosed at 5 μmol/kg, which directly targets the lungs. Following completion of the in vivo study, mice were euthanized and blood and plasma collected approximately 2.5-3 hours post administration of test compound for bronchodialator (BD) studies and 24 hours post administration for anti-inflamatory (AI) studies. Lungs were homogenized in Matrix A lysing tubes using a FastPrep 24 tissue and cell homogenizer (MP Biomedicals, Solon, Ohio). Both plasma samples and lung extracts were assayed for compound concentrations using an on-line, solid phase extraction LC/MS/MS system.

[7] = target: T5, Mnk2 (Homo sapiens, UniProt Q9HBH9); test: Kinase panel screen (KinaseProfiler), Mnk2; format: biochemical; settings: 10 μM ATP
T5 construct: purchased Upstate, Millipore Bioscience Division (KinaseProfiler service)
T5 sequence (Q9HBH9 whole entry): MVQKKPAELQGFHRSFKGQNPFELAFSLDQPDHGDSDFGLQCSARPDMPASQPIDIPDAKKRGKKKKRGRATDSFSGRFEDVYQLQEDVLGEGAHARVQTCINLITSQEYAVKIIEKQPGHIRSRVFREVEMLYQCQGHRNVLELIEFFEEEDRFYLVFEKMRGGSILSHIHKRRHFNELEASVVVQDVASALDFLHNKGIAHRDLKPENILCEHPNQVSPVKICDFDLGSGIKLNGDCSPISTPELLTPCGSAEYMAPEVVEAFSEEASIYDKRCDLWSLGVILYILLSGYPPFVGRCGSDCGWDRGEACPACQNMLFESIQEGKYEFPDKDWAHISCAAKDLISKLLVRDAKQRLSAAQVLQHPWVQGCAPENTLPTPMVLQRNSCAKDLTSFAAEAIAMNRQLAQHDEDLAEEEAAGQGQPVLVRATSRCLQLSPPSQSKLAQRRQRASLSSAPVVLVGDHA
Method: as §1

[8] = target: T6, ROCK2 (Homo sapiens, UniProt O75116); test: Rho kinase inhibition assay (IMAP fluorescence polarization), ROCK2; format: biochemical;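 note: kinase reaction started with 10 µM ATP and run 60 min at room temperature, then phosphorylated substrate captured on IMAP beads for 30 min and fluorescence polarization read in mP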
T6 construct: purchased Upstate/Chemicon 14-451
T6 sequence (O75116 11-552 limits assumed): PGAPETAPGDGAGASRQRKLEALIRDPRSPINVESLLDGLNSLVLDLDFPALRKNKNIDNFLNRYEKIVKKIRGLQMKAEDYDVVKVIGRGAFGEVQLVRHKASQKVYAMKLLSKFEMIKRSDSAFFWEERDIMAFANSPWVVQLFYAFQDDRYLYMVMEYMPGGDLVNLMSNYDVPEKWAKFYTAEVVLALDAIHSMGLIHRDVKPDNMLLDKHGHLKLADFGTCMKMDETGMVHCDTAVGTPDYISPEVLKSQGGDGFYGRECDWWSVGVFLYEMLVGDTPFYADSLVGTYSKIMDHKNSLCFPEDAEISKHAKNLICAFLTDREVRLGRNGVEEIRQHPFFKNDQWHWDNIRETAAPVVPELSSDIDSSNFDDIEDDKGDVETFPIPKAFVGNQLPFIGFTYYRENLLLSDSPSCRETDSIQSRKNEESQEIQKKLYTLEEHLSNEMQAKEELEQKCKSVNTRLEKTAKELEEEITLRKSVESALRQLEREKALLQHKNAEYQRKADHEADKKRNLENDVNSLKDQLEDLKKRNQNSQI
Method: (§2) Following the pre-incubation, 10 μM ATP was added to initiate the reaction. After 60 minutes at room temperature, Molecular Devices IMAP™ binding solution was added to bind phosphorylated substrate. After 30 minutes of incubation in the presence of the IMAP™ beads, the fluorescence polarization was read and the ratio was reported as mP. IC50 values for compounds and EC50 values for ATP were calculated using the Prism software from Graphpad.

[9] = target: T7, ROCK1 (Homo sapiens, UniProt Q13464); test: Rho kinase inhibition assay (IMAP fluorescence polarization), ROCK1; format: biochemical;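 note: kinase reaction run 60 min at room temperature, then phosphorylated substrate captured on IMAP beads for 30 min, with fluorescence polarization read in mP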
T7 construct: purchased Upstate/Chemicon 14-601
T7 sequence (Q13464 17-535 limits assumed): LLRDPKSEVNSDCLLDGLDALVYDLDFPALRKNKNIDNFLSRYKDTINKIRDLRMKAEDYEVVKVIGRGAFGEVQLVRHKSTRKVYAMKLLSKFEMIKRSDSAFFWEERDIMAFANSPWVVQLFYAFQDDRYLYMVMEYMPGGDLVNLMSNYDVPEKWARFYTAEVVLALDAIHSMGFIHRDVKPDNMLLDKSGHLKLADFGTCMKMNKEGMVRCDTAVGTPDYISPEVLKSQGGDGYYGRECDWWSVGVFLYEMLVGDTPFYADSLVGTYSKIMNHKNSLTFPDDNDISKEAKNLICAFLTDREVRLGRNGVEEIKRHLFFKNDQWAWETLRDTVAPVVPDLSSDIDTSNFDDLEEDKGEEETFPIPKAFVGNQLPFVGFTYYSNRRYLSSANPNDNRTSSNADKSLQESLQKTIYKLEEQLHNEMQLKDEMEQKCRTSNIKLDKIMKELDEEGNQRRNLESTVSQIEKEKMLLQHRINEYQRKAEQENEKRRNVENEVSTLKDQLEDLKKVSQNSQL
Method: as §2

[10] = target: T8, Akt3 human enzyme (Homo sapiens, UniProt Q9Y243); test: Akt3 inhibition assay (IMAP FP); format: biochemical;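 note: kinase reaction run 60 min at room temperature after 30 µM ATP start, phosphorylated substrate captured on IMAP beads and read as fluorescence polarization (mP)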
T8 construct: purchased Upstate Chemicon 14-502
T8 sequence (Q9Y243 whole entry): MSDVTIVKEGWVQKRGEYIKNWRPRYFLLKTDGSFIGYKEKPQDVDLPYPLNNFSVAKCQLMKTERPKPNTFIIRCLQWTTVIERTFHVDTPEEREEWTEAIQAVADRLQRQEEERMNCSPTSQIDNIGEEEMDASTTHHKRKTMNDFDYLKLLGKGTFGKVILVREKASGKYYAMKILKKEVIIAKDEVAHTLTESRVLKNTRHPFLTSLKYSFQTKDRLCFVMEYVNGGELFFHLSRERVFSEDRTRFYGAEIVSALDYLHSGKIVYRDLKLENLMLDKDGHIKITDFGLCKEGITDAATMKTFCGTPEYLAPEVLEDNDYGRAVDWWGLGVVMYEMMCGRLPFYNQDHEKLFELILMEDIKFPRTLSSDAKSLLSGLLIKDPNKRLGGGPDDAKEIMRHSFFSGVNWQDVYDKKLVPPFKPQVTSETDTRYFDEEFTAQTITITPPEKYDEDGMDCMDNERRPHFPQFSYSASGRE
Method: Inhibition of Akt3 and p70S6K activity was determined using the IMAP™ FP Progressive Binding Kit (Molecular Devices product number R8127). […] Following the pre-incubation, 30 μM ATP was added to initiate the reaction. After 60 minutes at RT, Molecular Devices IMAP™ binding solution was added to bind phosphorylated substrate. After 30 minutes of incubation in the presence of the IMAP™ beads the fluorescence polarization was read and the ratio was reported as mP. IC50 results were calculated using the Prism software from Graphpad. The Ki values were determined according to the following formula: Ki=IC50/(1+([ATP Challenge]/EC50 ATP)).

[11] = target: T9, p70S6K human enzyme (Homo sapiens, UniProt P23443, T412E); test: p70S6K inhibition assay (IMAP FP); format: biochemical;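 note: kinase reaction run at room temperature, phosphorylated substrate captured on IMAP beads and read as fluorescence polarization in mP, IC50 then converted to Ki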
T9 construct: purchased Upstate Chemicon 14-486
T9 sequence (P23443 1-421 T412E limits assumed): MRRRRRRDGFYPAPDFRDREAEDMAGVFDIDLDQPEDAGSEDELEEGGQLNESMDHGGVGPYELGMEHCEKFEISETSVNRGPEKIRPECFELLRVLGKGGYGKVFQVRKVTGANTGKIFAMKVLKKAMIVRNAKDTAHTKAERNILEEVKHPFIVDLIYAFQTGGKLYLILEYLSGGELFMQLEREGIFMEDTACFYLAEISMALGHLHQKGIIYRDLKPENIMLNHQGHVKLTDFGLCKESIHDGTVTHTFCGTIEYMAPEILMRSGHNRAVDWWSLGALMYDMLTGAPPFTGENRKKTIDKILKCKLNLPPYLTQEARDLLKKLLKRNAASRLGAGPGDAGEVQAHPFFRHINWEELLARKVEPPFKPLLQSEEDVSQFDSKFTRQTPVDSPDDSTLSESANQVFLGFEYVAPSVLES

[12] = system: A-10 rat thoracic aorta cells; test: PDGF-stimulated smooth muscle cell proliferation assay (BrdU incorporation); format: cell-based; settings: A-10 cells, 10 ng/mL PDGF, BrdU incorporation, percent of total challenge-stimulated proliferation;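 note: cells kept in serum-free medium, BrdU allowed to incorporate for 24 h, then incorporated label detected fluorometrically with an anti-BrdU antibody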
Method: Effects on cell proliferation were measured using a bromodeoxyuridine (BrdU) incorporation assay. […] Serum free media containing 01% BSA was added to the cells. 24 hours later the media was removed and replaced with warmed serum free media. […] Proliferation was then monitored using the BrdU Cell Proliferation Assay, HTS (Calbiochem cat. #t HTS01). BrdU was allowed to incorporate into cells for 24 hours prior to the addition of fixative/denaturing solution and the fluorometric detection of incorporated BrdU using a BrdU antibody as per manufacturer's directions. Data are reported as a percent of the PDGF-stimulated BrdU incorporation.

T1 sequence (P28482 whole entry): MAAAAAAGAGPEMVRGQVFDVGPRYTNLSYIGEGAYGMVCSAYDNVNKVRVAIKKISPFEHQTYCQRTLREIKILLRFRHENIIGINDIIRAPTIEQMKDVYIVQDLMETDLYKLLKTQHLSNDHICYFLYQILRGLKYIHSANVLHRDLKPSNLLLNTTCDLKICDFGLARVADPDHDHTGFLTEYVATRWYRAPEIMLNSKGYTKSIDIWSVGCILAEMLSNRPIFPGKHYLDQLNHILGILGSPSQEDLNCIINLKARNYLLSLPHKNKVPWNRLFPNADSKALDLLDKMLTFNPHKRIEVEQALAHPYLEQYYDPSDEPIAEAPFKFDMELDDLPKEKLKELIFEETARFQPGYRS

With NC(=O)Cn1ccc2cc(CN3CC[C@@H](Nc4cccc5cnccc45)C3)ccc21 [Compound 2.059, (R)-2-(5-((3-(isoquinolin-5-ylamino)pyrrolidin-1-yl)methyl)-1H-indol-1-yl)acetamide] the “ERK2 Percent inhibition, 1 μM” value [1] was 56%, the “ERK2 Percent inhibition, 10 μM” value [1] was 12% and the inhibition at 1 µM ([1]; 1 μM, read-out: ERK2 inhibited) was roughly 50%. For the same molecule, the activity at 1 µM ([2]; 1 μM test compound, read-out: IRAK1 Percent inhibition, 1 μM) was 87%, the activity at 10 µM ([2]; 10 μM test compound, read-out: IRAK1 Percent inhibition, 10 μM) was 30% and the activity at 1 µM ([3]; 1 μM test compound, 10 μM ATP, read-out: ERK1 Percent inhibition, 1 μM) was 37%. For the same molecule, the inhibition at 1 µM ([3]; 1 μM, read-out: ERK1 inhibited) was roughly 50%, the activity at 10 µM ([3]; 10 μM test compound, 10 μM ATP, read-out: ERK1 Percent inhibition, 10 μM) was 4% and the “GCK Percent inhibition, 1 μM” value [4] was 75%. The activity at 10 µM ([4]; 10 μM test compound, 10 μM ATP, read-out: GCK Percent inhibition, 10 μM) was 34%, the IC50 ([5]; read-out: IC50 for inhibition of IL-1β secretion) was 169 ± 13 nM and the IC50 ([5]; read-out: IC50 for inhibition of IL-9 secretion) was 269 ± 28.1 nM. The IC50 ([5]; read-out: IC50 for inhibition of TNF-α secretion) was 207 ± 17 nM, the “IL-6, %” value ([5]; average percent of stimulated IL-6 secretion from human monocytes at 10 μM of test compound) was 0.0% and the concentration at 15 min [6] was 90 nM. The activity at 1 µM ([7]; 1 μM test compound, read-out: Mnk2 Percent inhibition, 1 μM) was 49%, the activity at 10 µM ([7]; 10 μM test compound, read-out: Mnk2 Percent inhibition, 10 μM) was 12% and the Ki ([8]; 10 μM ATP, read-out: ROCK2 Ki, Avg) was 2.7 nM. It also gave a Ki ([8]; average Ki, read-out: ROCK2 Ki) of 2.7 nM, a Ki ([9]; Avg, 10 μM ATP) of 3.9 nM and a Ki ([9]; average Ki) of 3.9 nM. The Ki ([10]; 30 μM ATP, Ki=IC50/(1+([ATP Challenge]/EC50 ATP)), read-out: Akt3 Ki, Avg) was 120 nM, the Ki ([10]; average Ki, read-out: Akt3 Ki) was 120 nM and the Ki ([11]; 30 μM ATP, Ki=IC50/(1+([ATP Challenge]/EC50 ATP)), read-out: p70S6K Ki, Avg) was 208 nM. The Ki ([11]; average Ki, read-out: p70S6K Ki) was 208 nM, the “Percent of PDGF Induced Proliferation at 1 μM Avg” value ([12]; 1 μM test compound) was 75.0% and the “Percent of PDGF Induced Proliferation at 10 μM Avg” value ([12]; 10 μM test compound) was 25.5%.
